Reference: US10844023B2 (Washington University, priority 2017, dated 2020)

The compounds below were run on Mfn2 null MEFs (assay: Mitochondrial elongation (aspect ratio) fusogenicity assay). Conditions: Mfn2 null MEFs, overnight; treatment with 1 μM compound (footnote).
Format: cell-based, mouse
Parameters: % long compare to B: dose or concentration left out as unconfirmed
Text: A cultured murine embryonic fibroblast assay system was used in which mitochondrial elongation (an increase in aspect ratio) reflects enhanced mitochondrial fusion.
A pharmacophore model was generated based on the interactions of HR1 and HR2 domains in the calculated structural model of Mfn2 in the closed conformation. The key features included hydrophobic interactions involving Mfn2 HR1: Val372 and Met376, and aromatic interactions and hydrogen bonding involving Mfn2 HR1 His380. […] A library comprising ˜14 million commercially available compounds was prepared in silico and evaluated using PHASE to fit these criteria. Top ranked hits were clustered, and filtered based on pharmacological properties using Qikprop. The top 55 (see TABLE 4) commercially available small molecules conforming to the model were selected for functional screening and purchased in 1 mg aliquots. […] Images were acquired by confocal microscopy. Each compound was scored for fusogenicity (see e.g., FIG. 24A) and % cell death (see e.g., FIG. 24B).
Cells were excited with 408 nm (Hoechst), […] (MitoTracker Green and Calcein AM, GFP), or 637 nm (TMRE, MitoTracker Orange, Ethidium homodimer-1, and AF594-Dextran) laser diodes. For mitochondrial elongation studies mitochondrial aspect ratio (long axis/short axis) was calculated using automated edge detection and Image J software. Mitochondrial depolarization was calculated as % of green mitochondria visualized on MitoTracker Green and TMRE merged images, expressed as green/(green+yellow mitochondria)×100.

Row | Compound | Aspect ratio (MEAN ± SEM)
1 | O=C(Nc1cc(CSCCOC(=O)C2C3CCCCC32)ccn1)C1C2CCCCC21 (stereo not shown) [2-{[(2-{bicyclo[4.1.0]heptane-7-amido}pyridin-4-yl)methyl]sulfanyl}ethyl bicyclo[4.1.0]heptane-7-carboxylate] | 4.8 ± 1.0

Same assay, conditions: mitochondrial elongation relative to Cpd B (B01 = 100); Mfn2 null MEFs, compound overnight as printed (FIG. 48)

Row | Compound | % long compare to B
2 | NC(=O)c1c(NC(=O)CSc2nnc(-c3ccccc3)n2-c2ccccc2)sc2c1CCCC2 [1-G2, 2-{2-[(diphenyl-4H-1,2,4-triazol-3-yl)sulfanyl]acetamido}-4,5,6,7-tetrahydro-1-benzothiophene-3-carboxamide] | 20%
3 | CC(Sc1nnc(C2CC2)n1-c1ccccc1)C(=O)Nc1sc2c(c1C#N)CCCCC2 (stereo not shown) [1-G5, N-{3-cyano-4H,5H,6H,7H,8H-cyclohepta[b]thiophen-2-yl}-2-[(5-cyclopropyl-4-phenyl-4H-1,2,4-triazol-3-yl)sulfanyl]propana-mide] | 7%
4 | CC(Sc1nnc(Cc2cccs2)n1C1CC1)C(=O)Nc1sc2c(c1C(N)=O)CCC2 (stereo not shown) [1-G6, 2-[2-({4-cyclopropyl-5-[(thiophen-2-yl)methyl]-4H-1,2,4-triazol-3-yl}sulfanyl)propanamido]-4H,5H,6H-cyclopenta[b]thio-phene-3-carboxamide] | 9%
5 | CC(Sc1nccn1Cc1ccccc1)C(=O)Nc1sc2c(c1C(N)=O)CCC2 (stereo not shown) [1-G7, 2-{2-[(1-benzyl-1H-imidazol-2-yl)sulfanyl]propanamido}-4H,5H,6H-cyclopenta[b]thio-phene-3-carboxamide] | 3%
6 | CC(Sc1nncn1-c1ccccc1)C(=O)Nc1sc2c(c1C(N)=O)CCC2 (stereo not shown) [1-G8, 2-{2-[(4-phenyl-4H-1,2,4-triazol-3-yl)sulfanyl]propanamido}-4H,5H,6H-cyclopenta[b]thio-phene-3-carboxamide] | 14%
7 | Cc1nnc(SCC(=O)Nc2sc3c(c2C(N)=O)CCC3)n1-c1ccccc1 [1-H3, 2-{2-[(5-methyl-4-phenyl-4H-1,2,4-triazol-3-yl)sulfanyl]acet-amido}-4H,5H,6H-cyclo-penta[b]thiophene-3-carboxamide] | 10%
8 | NC(=O)c1c(NC(=O)CSc2nnc(-c3ccncc3)n2-c2ccc(F)cc2)sc2c1CCC2 [1-H5, 2-(2-{[4-(4-fluorophenyl)-5-(pyridin-4-yl)-4H-1,2,4-triazol-3-yl]sulfanyl]acetamido)-4H,5H,6H-cyclopenta[b]thio-phene-3-carboxamide] | 23%
9 | CC(Sc1nnc(Cc2ccccc2)n1C)C(=O)Nc1sc2c(c1C(N)=O)CCC2 (stereo not shown) [1-H6, 2-{2-[(5-benzyl-4-methyl-4H-1,2,4-triazol-3-yl)sulfanyl]propanamido}-4H.5H.6H-cyclopenta[b]-thiophene-3-carboxamide] | 8%
10 | Cn1c(Cc2ccccc2)nnc1SCC(=O)Nc1sc2c(c1C(N)=O)CCC2 [1-H7, 2-{2-[(5-benzyl-4-methyl-4H-1,2,4-triazol-3-yl)sulfanyl]-acetamido}-4H,5H,6H-cyclopenta[b]thiophene-3-carboxamide] | 6%
11 | CC(Sc1nnc(-c2ccccc2)n1-c1ccccc1)C(=O)Nc1sc2c(c1C(N)=O)CCC2 (stereo not shown) [1-H8, 2-{2-[(diphenyl-4H-1,2,4-triazol-3-yl)sulfanyl]propan-amido}-4H,5H,6H-cyclo-penta[b]thiophene-3-carboxamide] | −4%
12 | O=C(NCCSCc1ccccc1)NC1CCCC1 [1-H9, 1-[2-(benzylsulfanyl)ethyl]-3-cyclopentylurea] | 29%
13 | NC(=O)c1c(NC(=O)CSc2nnc(C3CC3)n2Cc2ccccc2)sc2c1CCCC2 [1-H11, 2-{2-[(4-benzyl-5-cyclopropyl-4H-1,2,4-triazol-3-yl)-sulfanyl]acetamido}-4,5,6,7-tetrahydro-1-benzothiophene-3-carboxamide] | 15%
14 | Cn1c(CC(=O)Nc2ccccc2)nnc1SCC(=O)Nc1sc2c(c1C(=O)NCc1ccccc1)CCCC2 [2-A1, N-benzyl-2-[2-({4-methyl-5-[(phenylcarbamoyl)methyl]-4H-1,2,4-triazol-3-yl}sulfanyl)acetamido]-4,5,6,7-tetrahydro-1-benzothiophene-3-carboxamide] | 26%
15 | CCn1c(CCc2ccccc2)nnc1SCC(=O)Nc1sc2c(c1C(N)=O)CCC(C)C2 (stereo not shown) [2-A4, 2-(2-{[4-ethyl-5-(2-phenylethyl)-4H-1,2,4-triazol-3-yl]sulfanyl}acetamido)-6-methyl-4,5,6,7-tetrahydro-1-benzothiophene-3-carboxamide] | 3%
16 | Cc1nnc(SCC(=O)Nc2sc3c(c2C(N)=O)CCC3)n1C [2-A5, 2-{2-[(dimethyl-4H-1,2,4-triazol-3-yl)sulfanyl]acetamido}-4H,5H,6H-cyclopenta[b]thio-phene-3-carboxamide] | 2%
17 | CC(Sc1nnc(N2CCOCC2)n1Cc1ccccc1)C(=O)Nc1ccc2c(c1)OCO2 (stereo not shown) [A01, N-(2H-1,3-benzodioxol-5-yl)-2-{[4-benzyl-5-(morpholin-4-yl)-4H-1,2,4-triazol-3-yl]sulfanyl)propana-mide] | −14%
18 | O=C(NCCCCc1ccccc1)Nc1ccc(F)cc1 [A2, 3-(4-fluorophenyl)-1-(4-phenylbutyl)urea] | −4%

Row | Compound | % long compare to B
19 | Cc1cccc(NC(=O)NCCCCc2ccccc2)c1 [A3, 3-(3-methylphenyl)-1-(4-phenylbutyl)urea] | 32%
20 | Cc1ccc(NC(=O)NCCCCc2ccccc2)cc1 [A4, 3-(4-methylphenyl)-1-(4-phenylbutyl)urea] | 75%
21 | CC(Sc1ccc(Br)cc1)C(=O)Nc1ccc2c(c1)OCCO2 (stereo not shown) [A05, 2-[(4-bromophenyl)sulfanyl]-N-(2,3-dihydro-1,4-benzodioxin-6-yl)propanamide] | −2%
22 | Cc1ccccc1NC(=O)NCCCCc1ccccc1 [A5, 3-(2-methylphenyl)-1-(4-phenylbutyl)urea] | 7%
23 | Cc1ccc2c(c1)SC(C(=O)NCc1ccc(N3CCCN(C)CC3)nc1)C2 (stereo not shown) [A07, 6-methyl-N-{[6-(4-methyl-1,4-diazepan-1-yl)pyridin-3-yl]methyl}-2,3-dihydro-1-benzothiophene-2-carboxamide] | 14%
24 | CC(Sc1nc(CN2CCOCC2)nc2ccccc12)C(=O)Nc1cccc(C(F)(F)F)c1 (stereo not shown) [A08, 2-({2-[(morpholin-4-yl)methyl]quinazolin-4-yl}sulfanyl)-N-[3-(trifluoromethyl)-phenyl]propanamide] | 47%
25 | CC(Sc1nnc(N2CCOCC2)n1Cc1ccccc1)C(=O)Nc1ccc2c(c1)OCCO2 (stereo not shown) [A09, 2-{[4-benzyl-5-(morpholin-4-yl)-4H-1,2,4-triazol-3-yl]sulfanyl}-N-(2,3-dihydro-1,4-benzodioxin-6-yl)propanamide] | 55%
26 | CC1CCCCC1NC(=O)NCCSCc1ccccc1 (stereo not shown) [A10, 1-[2-(benzylsulfanyl)ethyl]-3-(2-methylcyclohexyl)urea] | 71%
27 | Cc1ccc(-n2nnnc2SC(C)c2nc(-c3nnc[nH]3)no2)cc1 (stereo not shown) [A11, 1-(4-methylphenyl)-5-({1-[3-(4H-1,2,4-triazol-3-yl)-1,2,4-oxadiazol-5-yl]ethyl}sulfanyl)-1H-1,2,3,4-tetrazole] | 4%
28 | NC(=O)c1c(NC(=O)CSc2ccccc2)sc2c1CCC2 [B2, 2-[2-(phenylsulfanyl)acetamido]-4H,5H,6H-cyclopenta[b]thiophene-3-carboxamide] | 12%
29 | CC(Sc1nnc(N2CCOCC2)n1Cc1ccccc1)C(=O)Nc1ccc2[nH]c(=O)[nH]c2c1 (stereo not shown) [B03, 2-{[4-benzyl-5-(morpholin-4-yl)-4H-1,2,4-triazol-3-yl]sulfanyl}-N-(2-oxo-2,3-dihydro-1H-1,3-benzodiazol-5-yl)propanamide] | 39%
30 | S=C(NCCSCc1ccco1)NC1CC2CCC1C2 (stereo not shown) [B04, 1-{bicyclo[2.2.1]heptan-2-yl}-3-(2-{[(furan-2-yl)methyl]sulfanyl}ethyl)thiourea] | 9%
31 | CC(Sc1nnc(C2CC2)n1Cc1ccccc1)C(=O)Nc1sccc1C(N)=O (stereo not shown) [B4, 2-{2-[(4-benzyl-5-cyclopropyl-4H-1,2,4-triazol-3-yl)sulfanyl]propanamido}thiophene-3-carboxamide] | 4%
32 | CC(C)(C)NC(=O)NC(=O)COC(=O)CSCc1nc2scc(-c3ccccc3)c2c(=O)[nH]1 [B07, 2-[(tert-butylcarbamoyl)amino]-2-oxoethyl 2-[({4-oxo-5-phenyl-3H,4H-thieno[2,3-d]pyrimidin-2-yl}methyl)sulfanyl] acetate] | 64%
33 | Cc1ccc(-c2noc(CSCCCC(=O)Nc3c(C)cccc3C)n2)cc1F [B08, N-(2,6-dimethylphenyl)-4-({[3-(3-fluoro-4-methylphenyl)-1,2,4-oxadiazol-5-yl]methyl}sulfanyl)-butanamide] | 12%
34 | O=C(NCCSCc1ccc(Br)s1)C1CCCN(C(=O)c2cccs2)C1 (stereo not shown) [B09, N-(2-{[(5-bromothiophen-2-yl)methyl]sulfanyl}-ethyl)-1-(thiophene-2-carbonyl)piperidine-3-carboxamide] | 36%
35 | Cc1cccc(C)c1NC(=O)CCCSCc1ncc(C(C)C)o1 [B10, N-(2,6-dimethylphenyl)-4-({[5-(propan-2-yl)-1,3-oxazol-2-yl]methyl}sulfanyl)-butanamide] | 6%

Same assay, conditions: rank order of aspect ratio among 44 soluble library compounds

Row | Compound | Fusogenicity Rank
36 | O=C(Nc1cc(CSCCOC(=O)C2C3CCCCC32)ccn1)C1C2CCCCC21 (stereo not shown) [2-{[(2-{bicyclo[4.1.0]heptane-7-amido}pyridin-4-yl)methyl]sulfanyl}ethyl bicyclo[4.1.0]heptane-7-carboxylate] | 10
37 | CC1CCCCC1NC(=O)NCCSCc1ccccc1 (stereo not shown) [A10, 1-[2-(benzylsulfanyl)ethyl]-3-(2-methylcyclohexyl)urea] | 4
